Several values for one entry are separate records, joined by “and”; a condition that tells them apart may be missing. Identical values can stand only once.
Experiments:
[1] = Metabolic stability in cryopreserved hepatocytes, mouse; type: in vitro ADME; settings: mouse, cryopreserved hepatocytes; read-out: Hepatocyte stability t1/2
Experimental: (§1) page 34: UHPLC-MS/MS System: Chromatographic separation was performed on an Acquity UPLC BEH […] with 6500+ Qtrap system. […] software suite. The UPLC column was maintained at 55 °C. Mobile phase A was 0.1% formic acid in MilliQ H2O and Mobile phase B was 0.1% formic acid in acetonitrile. The flow rate was 0.9 […] The mass spectrometer was operated in positive-ion mode with electrospray ionization. MRM transition m/z […] plasma stability and plasma protein binding. The following MS parameters were employed for analyte measurements: ion spray voltage 5 kV, temperature 550 °C, gas 1 and gas 2 were 60, entrance potential (EP): 10 V, declustering potential (DP): 50 V, collision energy (CE): 27 V, and collision cell exit potential (CXP): 16 V. Metabolic Stability in mouse and human cryopreserved hepatocytes. 10 mM test compounds were provided by Compound Sample Group. Diluted 10 mM test compounds and 30 mM positive control compounds (7-ethoxycoumarin) to 1 mM and 3 mM with DMSO in 96-well plates. Diluted 1 mM test compounds and 3 mM positive control compounds to 100 μM and 300 μM dosing solutions with ACN. Cryopreserved cells were thawed, isolated and suspended in Incubation Medium, then diluted with pre-warmed Incubation Medium to 0.5 × 10^6cells/mL. Added 198 μL of pre-warmed cell suspensions in 96 -well plates. Transferred 125 μL of stop solution (acetonitrile containing 200 ng/mL tolbutamide and 200 ng/mL labetalol as internal standards) in a set of pre- labeled 96-well plates. Spike d 2 μL dosing solution to each well of 96 -well plates in duplicates. For T0 Samples, mix ed to achieve a homogenous suspension for about 1 min, then immediately transferred 25 μL of each sample into well containing 125 μL of ice -cold stop solution followed by mixing. Incubated all plates at 37°C in a 95% humidified incubator at 5% CO 2 to start the reactions page 35: with constant shaking at about 600 rpm. At 15, 30, 60 and 90 min, mixed samples and then transferred 25 μL of each sample at each time point to well containing 125 μL of ice -cold stop solution followed by mixing. Medium Control (MC) sample plates (labeled as T0-MC and T90- MC) were prepared at T0 and T90 by adding the same components to each well except cell suspensions. At each corresponding time point, stopped the reactions by removing the plates from incubator and mixing with 125 μL of ice-cold stop solution. Vortexed the plates immediately on a plate shaker at 500 rpm for 10 minutes. Then, centrifuge d all sample plates at 3220 x g for 20 min at 4°C. After centrifugation, 80 μL/well of supernatant in the sample plates were transferred to another set of pre-labeled 96-well plates which containing 240 μL of ultra pure water according to the plate map. Analytical plates were sealed and stored at 4°C until LC-MS/MS analysis. Thawing Medium: Williams' Medium E containing 5% fetal bovine serum and 30% Perc oll solution and other supplements. Incubation Medium: Williams' Medium E (no phenol red) containing 2 mM L-Glutamine and 25 mM HEPES. Stop Solution: Acetonitrile containing 200 ng/mL tolbutamide and labetalol as internal standards. Dilution Solution: Ultra-pure water. The remaining percents of test articles after incubation were calculated by the follow equations: Equation ( 6): Use equation of first order kinetics [NT] […] The data was […] concatenated with a reversed decoy database for evaluating False Discovery Rate (FDR). […]

[2] = Metabolic stability in cryopreserved hepatocytes, human; type: in vitro ADME; settings: human, cryopreserved hepatocytes; read-out: Hepatocyte stability t1/2
Experimental: as §1

CK1α = CK1α (Homo sapiens, UniProt P48729+Q96SW2); assay: In vivo PD: CK1α protein levels in MOLM-13 xenograft (western blot of human cells from bone marrow); design: quantified western blots of isolated human cells from the bone marrow of treated mice; endogenous in cells; host or cells: MOLM-13 xenograft cells from NSG mouse bone marrow, murine cells depleted; species or system NSG mice engrafted with MOLM-13 cells; settings: for CK1a quantified western blot signal, group mean (Mean 2): n 3, DMSO mean 0.9882; for CK1a quantified western blot signal, individual animals: relative to DMSO; for CK1α protein level in vivo: 48 h
CK1α, sequence (P48729 whole entry): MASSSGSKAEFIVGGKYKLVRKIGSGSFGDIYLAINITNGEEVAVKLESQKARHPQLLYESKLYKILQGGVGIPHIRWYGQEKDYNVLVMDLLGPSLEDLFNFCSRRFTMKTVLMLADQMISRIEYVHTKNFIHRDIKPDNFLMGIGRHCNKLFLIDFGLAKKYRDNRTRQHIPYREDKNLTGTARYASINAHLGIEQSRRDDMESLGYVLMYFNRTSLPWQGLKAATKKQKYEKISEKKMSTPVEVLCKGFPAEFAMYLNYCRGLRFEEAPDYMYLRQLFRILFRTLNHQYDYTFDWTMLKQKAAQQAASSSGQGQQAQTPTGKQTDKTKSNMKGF
CK1α, sequence (Q96SW2 whole entry): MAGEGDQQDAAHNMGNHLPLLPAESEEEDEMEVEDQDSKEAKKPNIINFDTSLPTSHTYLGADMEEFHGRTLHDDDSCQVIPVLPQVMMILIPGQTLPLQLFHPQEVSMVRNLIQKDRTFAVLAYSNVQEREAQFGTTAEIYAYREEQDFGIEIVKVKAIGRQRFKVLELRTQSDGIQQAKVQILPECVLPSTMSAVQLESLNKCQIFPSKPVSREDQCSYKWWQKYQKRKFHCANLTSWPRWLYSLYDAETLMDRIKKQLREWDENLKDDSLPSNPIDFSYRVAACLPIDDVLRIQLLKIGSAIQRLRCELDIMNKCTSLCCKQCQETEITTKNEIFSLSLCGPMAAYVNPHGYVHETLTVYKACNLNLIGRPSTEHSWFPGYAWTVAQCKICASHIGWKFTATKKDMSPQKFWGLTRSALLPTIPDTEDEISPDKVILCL
CK1α, sequence (Q16531 whole entry partner): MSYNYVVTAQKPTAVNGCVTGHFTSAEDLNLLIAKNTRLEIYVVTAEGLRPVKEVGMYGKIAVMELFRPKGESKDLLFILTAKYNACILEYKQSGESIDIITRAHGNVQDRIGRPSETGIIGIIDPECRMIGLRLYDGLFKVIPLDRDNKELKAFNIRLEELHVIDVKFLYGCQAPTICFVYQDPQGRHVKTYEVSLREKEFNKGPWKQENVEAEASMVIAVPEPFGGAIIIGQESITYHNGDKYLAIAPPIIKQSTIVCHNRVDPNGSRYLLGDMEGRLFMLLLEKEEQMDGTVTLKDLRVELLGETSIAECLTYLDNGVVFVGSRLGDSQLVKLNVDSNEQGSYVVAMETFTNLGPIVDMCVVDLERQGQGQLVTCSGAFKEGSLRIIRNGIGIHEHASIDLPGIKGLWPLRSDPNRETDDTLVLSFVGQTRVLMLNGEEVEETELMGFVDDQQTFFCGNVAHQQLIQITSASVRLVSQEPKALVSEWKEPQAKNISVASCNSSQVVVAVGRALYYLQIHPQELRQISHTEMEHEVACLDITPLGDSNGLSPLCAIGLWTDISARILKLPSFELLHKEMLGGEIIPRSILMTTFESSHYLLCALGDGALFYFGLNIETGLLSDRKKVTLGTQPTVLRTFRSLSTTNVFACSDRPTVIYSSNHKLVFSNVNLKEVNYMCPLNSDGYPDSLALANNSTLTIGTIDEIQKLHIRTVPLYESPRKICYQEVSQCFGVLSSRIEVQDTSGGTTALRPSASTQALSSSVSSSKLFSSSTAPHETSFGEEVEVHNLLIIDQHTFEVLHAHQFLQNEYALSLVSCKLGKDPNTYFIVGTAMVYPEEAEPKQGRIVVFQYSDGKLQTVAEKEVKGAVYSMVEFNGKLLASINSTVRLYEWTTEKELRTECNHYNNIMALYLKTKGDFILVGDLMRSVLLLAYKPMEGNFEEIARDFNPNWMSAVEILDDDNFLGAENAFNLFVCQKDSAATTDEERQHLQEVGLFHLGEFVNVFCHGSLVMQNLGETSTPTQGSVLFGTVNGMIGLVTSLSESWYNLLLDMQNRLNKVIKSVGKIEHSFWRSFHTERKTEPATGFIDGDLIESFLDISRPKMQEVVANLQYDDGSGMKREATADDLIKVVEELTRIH
Experimental: For the PD experiment, NSG mice engrafted with MOLM-13 cells were treated for 48 h with SJ3149 or DMSO vehicle in 4 groups: vehicle, 50 mg/kg once per day, or vehicle or 50 mg/kg twice per day (Fig. 6). After 48 h, the mice were sacrificed and human cells were isolated from the collected bone marrow and lysed for western blot analysis.
(§2) For the xenograft transplantation study, female NSG mice (NOD.Cg-Prkdc^scid Il2rg^tm1Wjl/SzJ, Strain #005557, The Jackson Laboratory) aged 6–8 weeks were transplanted with 100,000 MOLM-13 cells by tail-vein injection. 10 days post-transplantation, mice were treated with SJ3149 via intraperitoneal injections for the following 2-day dosing schedule: 50 mg/kg (1 dose every 12 h), and 50 mg/kg (1 dose every 24 h) with n = 3 per group. Control groups (n = 3) were treated with DMSO either 1 dose every 24 h or 1 dose every 12 h with equal volume as treatment groups. Mice were euthanized 48 h after the first treatment and bone marrow cells were collected. Murine cells were depleted using the EasySep Mouse/Human Chimera isolation kit ([…] Technologies #19849). NSG mice were housed in microisolation cages and kept under barrier conditions to keep them specific pathogen-free. The lights for NSG mice are on an automated 12-h on, 12-h off light cycle. The mouse room has a separate thermostat and humidistat to control temperature and humidity at the room level. Sex was not considered beyond female mice being most commonly used for cell line-derived xenografts. Ethical approval by the St. Jude Institutional Animal Care and Use Committee.
as §2, with “Female” for “For the xenograft transplantation study, female”

For `O=C1CCC(N2Cc3cc(Nc4noc5ccccc45)ccc3C2=O)C(=O)N1` (stereo not shown) [SJ3149], the half-life at 1 µM [1] was greater than 3.6 h, the half-life at 1 µM [2] was greater than 3.6 h and the “CK1a quantified western blot signal, group mean (Mean 2)” value (CK1α; 50 mg/kg 1x/day) was 0.3507. The “CK1a quantified western blot signal, individual animals” value (CK1α; 50 mg/kg 1x/day) was 0.2018 and 0.4461 and 0.4041, the “CK1a quantified western blot signal, group mean (Mean 2)” value (CK1α; 50 mg/kg 2x/day) was 0.212 and the “CK1a quantified western blot signal, individual animals” value (CK1α; 50 mg/kg 2x/day) was 0.07248 and 0.5016 and 0.06191. For the same molecule, the “CK1a quantified western blot signal, group mean (Mean 2)” value (CK1α; 100 mg/kg 1x/day) was 0.4998, the “CK1a quantified western blot signal, individual animals” value (CK1α; 100 mg/kg 1x/day) was 0.1574 and 0.8298 and 0.5123 and the “CK1α protein level in vivo” value (CK1α; IP 50 mg/kg once per day) was “significant degradation of CK1α”. For the same molecule, the “CK1α protein level in vivo” value (CK1α; IP 50 mg/kg twice per day) was “significant degradation of CK1α”.
